Data: patent US6509161B1, “Green fluorescent protein” (Gentronix Limited, priority 2000, dated 2003)

What was measured:
[1] = Fluorescence polarisation by flow-injection analysis on the two-PMT apparatus; format: physicochemical; details: 488 nm excitation, GFP within whole GM-FF18984 yeast cells (0.005 % MMS, 18 hours), HPTSA 1×10^−7 mol l^−1 in phosphate buffer
Protocol: An air cooled argon ion laser (162LGL, LG Laser Graphics GmbH, Dieburg, Germany), provided a 488 nm excitation light beam of 5 mW after filtering (TEM00>95%, beam diameter 0.67±0.05 mm). The light beam is represented by the arrow 1 in FIG. 1. The light beam 1 was plane polarised (>100:1). A four window quartz fluorescence flow cell 2 with an internal volume of 132 μl, specially constructed by Hellma Ltd, Southend-on-Sea, UK was housed in a cubic black plastic mounting block 3 (30×30×30 mm). The mounting block 3 was built at the University of Manchester Institute of Science and Technology. […]
A 488 nm interference filter 7, (3 nm half bandwidth), was used to filter the excitation light beam 1. […] One filter 8, 9 was rotated through 90° with respect to the other, such that one PMT 5 recorded the fluorescence intensity emitted polarised parallel with respect to the excitation beam (Ill), and the other PMT 6 recorded that emitted polarised perpendicular with respect to the excitation beam (Il). […] Additional filters were optimised and used in conjunction with the polarising filters to allow the laser-induced GFP fluorescence at 517 nm to be measured, whilst rejecting the high intensity laser light at 488 nm scattered towards the detector by yeast cells suspended in the stream of liquid passing through the flow cell. […]

[2] = Fluorescence polarisation ratio of fluorophores, commercial fluorescence spectrometer with two polarising filters; format: physicochemical; details: average of 20 replicate readings, cuvette
From the text: A standard commercial fluorescence spectrometer (LS50-B, Perkin Elmer) was used to carry out conventional measurements of fluorescence, scattered light intensity and for obtaining excitation and emission spectra, with a 1 cm path length acrylic cuvette (not shown). A yellow Schott glass filter (not shown) (YG495, thickness=3 mm) was placed within the sample chamber directly in front of the window of a PMT, in order to block excitation light scattered towards the PMT by yeast cells suspended in the cuvette. For fluorescence measurements the excitation and emission wavelengths were 490 and 520 nm respectively. […] Light intensity was recorded in arbitrary units produced directly by the instrument software.
Four fluorophores were chosen, which were close spectroscopic mimics of GFP. […] Using the commercial fluorescence spectrometer (not shown), the fluorescence excitation and emission spectra for each fluorophore and for GFP were obtained. […] HPTSA needed to be used at 20 times the concentration of fluorescein to obtain the same magnitude fluorescence signal.
To measure the fluorescence polarisation ratio (P) of the fluorophores, two polarising filters (not shown) (Grade HN38 polaroid sheet, laminated in rigid acrylic, thickness=3.4 mm) were inserted within the housing 3, one either side of the sample cuvette (Which was used in place of the flow cell 2). […]

## O=S(=O)([O-])c1cc(O)c2ccc3c(S(=O)(=O)[O-])cc(S(=O)(=O)[O-])c4ccc1c2c34.[Na+].[Na+].[Na+] [HPTSA, 8-hydroxypyrene-1,3,6-trisulfonic acid trisodium salt]
[1]
  average fluorescence polarisation ratio (P): ≈ 0
[2]
  difference between Ill and Il: less than 0.5%
